Data as given in patent US9120749B2, “Quinoline derivatives and MELK inhibitors containing the same” (ONCOTHERAPY SCIENCE, INC., priority 2010, dated 2015).
Structures can show the parent of a compound that is named as a salt. Where two headings read alike, the source gives them in different places.

Assays:
HT-1197 cells = assay: Cell-based assay: anti-proliferative activity, Cell Counting Kit-8, 72 hours (HT-1197, negative control without MELK expression); details: 72 hours
Method in brief: (§1)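 T47D, A549 and BT-549 cells, with MELK-negative HT-1197 as control (MELK status checked by western blot), seeded at 2,000–3,000 cells/well. Growth measured by CCK-8 72 hours after inhibitor exposure; IC50 values calculated.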

T47D cells = assay: Cell-based assay: anti-proliferative activity, Cell Counting Kit-8, 72 hours (T47D)
Method in brief: as §1

MELK = MELK (Homo sapiens, UniProt Q14680); assay: Kinase assay: MELK activity, phosphorylation of FITC-labeled histone H3 peptide measured by IMAP fluorescence polarization; type: biochemical; details: read-out: IC50 (μM) (kinase assay)
Method in brief: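 A FITC-labelled histone H3 peptide served as substrate, with compounds serially diluted to 1% DMSO final. Reactions were stopped with three volumes of IMAP progressive binding solution. After 0.5 h at room temperature, fluorescence polarization was read.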

A549 cells = assay: Cell-based assay: anti-proliferative activity, Cell Counting Kit-8, 72 hours (A549); details: 72 hours
Method in brief: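 A549 cells seeded in 96-well plates and exposed to candidate inhibitors for 72 hours. Growth measured with Cell Counting Kit-8; IC50 values calculated from the dose response.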

22Rv1 cells [1] = assay: Cell-based assay: anti-proliferative activity, Cell Counting Kit-8, 72 hours (22Rv1); details: Homo sapiens
DU4475 cells [2] = assay: Cell-based assay: anti-proliferative activity, Cell Counting Kit-8, 72 hours (DU4475)
22Rv1 cells [3] = assay: Cell-based assay: anti-proliferative activity, Cell Counting Kit-8, 72 hours (22Rv1); details: Homo sapiens; remark: listed apart in the source
DU4475 cells [4] = assay: Cell-based assay: anti-proliferative activity, Cell Counting Kit-8, 72 hours (DU4475); remark: listed apart in the source
[5] = HT1197 cells (negative control, no MELK expression), hydrochloride
[6] = HT1197 cells (negative control, no MELK expression), dihydrochloride

Chain of MELK (Q14680 whole entry, looked up): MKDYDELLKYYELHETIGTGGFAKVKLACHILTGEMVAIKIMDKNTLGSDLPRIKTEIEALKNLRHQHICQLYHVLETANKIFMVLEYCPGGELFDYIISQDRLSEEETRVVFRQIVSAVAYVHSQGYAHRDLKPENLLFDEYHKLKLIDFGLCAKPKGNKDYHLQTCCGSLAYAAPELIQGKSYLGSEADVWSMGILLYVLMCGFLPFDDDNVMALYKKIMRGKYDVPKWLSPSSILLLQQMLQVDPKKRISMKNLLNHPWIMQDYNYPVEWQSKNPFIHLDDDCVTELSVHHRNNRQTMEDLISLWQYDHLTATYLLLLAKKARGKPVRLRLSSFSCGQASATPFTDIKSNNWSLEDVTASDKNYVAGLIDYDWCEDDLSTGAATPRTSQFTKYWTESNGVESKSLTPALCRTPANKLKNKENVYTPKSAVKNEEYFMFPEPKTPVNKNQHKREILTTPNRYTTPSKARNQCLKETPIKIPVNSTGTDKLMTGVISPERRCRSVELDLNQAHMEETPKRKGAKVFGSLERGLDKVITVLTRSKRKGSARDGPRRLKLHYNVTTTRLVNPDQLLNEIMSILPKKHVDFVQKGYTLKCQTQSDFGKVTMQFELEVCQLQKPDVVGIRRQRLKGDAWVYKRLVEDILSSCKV

SMILES | IC50 (T47D cells; 72 hours, hydrochloride) | IC50 (MELK; hydrochloride) | IC50 (A549 cells; hydrochloride) | IC50 (22Rv1 cells [1]) | IC50 (MELK) | IC50 (22Rv1 cells [3]) | IC50 (HT-1197 cells; [5]) | IC50 (DU4475 cells [4]; hydrochloride) | also measured
O=C(c1cnc2ccc(-c3cc(F)c(O)c(Cl)c3)cc2c1N[C@H]1CC[C@H](CN2CCCC2)CC1)C1CC1 [Example 588, (6-(3-chloro-5-fluoro-4-hydroxyphenyl)-4-(1R,4R)-4-(pyrrolidin-1-ylmethyl)cyclohexylamino)quinolin-3-yl)(cyclopropyl)methanone hydrochloride] | 0.091 µM | 0.0037 µM | 0.096 µM | 0.16 µM |  |  |  |  | IC50 (HT-1197 cells; HT1197 cells (negative control), hydrochloride): 0.46 µM; IC50 (DU4475 cells [2]; hydrochloride): 0.063 µM
CC(C)(N)c1ccc(Nc2c(C(=O)C3CC3)cnc3ccc(-c4cc(Cl)c(O)c(Cl)c4)cc23)cc1 [Example 602, {4-[4-(2-Aminopropan-2-yl)phenylamino]-6-(3,5-dichloro-4-hydroxyphenyl)quinolin-3-yl}(cyclopropyl)methanone] |  |  |  | 0.082 µM | 0.0011 µM |  |  |  | IC50 (HT-1197 cells; HT1197 cells (negative control)): 0.73 µM; IC50 (T47D cells; 72 hours): 0.13 µM; IC50 (A549 cells): 0.074 µM; IC50 (DU4475 cells [2]): 0.038 µM
CC(C)(N)c1ccc(Nc2c(C(=O)C3CC3)cnc3ccc(-c4cc(F)c(O)c(Cl)c4)cc23)cc1 [Example 604, {4-[4-(2-Aminopropan-2-yl)phenylamino]-6-(3-chloro-5-fluoro-4-hydroxyphenyl)quinolin-3-yl}(cyclopropyl)methanone] |  |  |  | 0.087 µM | 0.0028 µM |  |  |  | IC50 (HT-1197 cells; Homo sapiens, HT1197, 72 h, HT1197 cells (negative control)): 0.79 µM; IC50 (T47D cells; Homo sapiens, T47D, 72 h): 0.094 µM; IC50 (A549 cells; Homo sapiens, A549, 72 h): 0.097 µM; IC50 (DU4475 cells [2]; Homo sapiens, DU-4475, 72 h): 0.039 µM
N[C@H]1CCCN(c2ccc(Nc3c(C(=O)C4CC4)cnc4ccc(-c5cc(Cl)c(O)c(Cl)c5)cc34)cn2)C1 [Example 647, (S)-(4-(6-(3-aminopiperidin-1-yl)pyridin-3-ylamino)-6-(3,5-dichloro-4-hydroxyphenyl)quinolin-3-yl)(cyclopropyl)methanone hydrochloride] | 0.03 µM | 0.0015 µM | 0.08 µM |  |  | 0.03 µM | 0.75 µM | 0.015 µM | 
CC(=O)c1cnc2ccc(-c3cc(Cl)c(O)c(Cl)c3)cc2c1Nc1ccc(CN2CCN(C)CC2)cc1 [Example 655, 1-(6-(3,5-dichloro-4-hydroxyphenyl)-4-(4-((4-methylpiperazin-1-yl)methyl)phenylamino)quinolin-3-yl)ethanone hydrochloride] | 0.072 µM | 0.0029 µM | 0.23 µM |  |  | 0.18 µM | 7.8 µM | 0.097 µM | 
CN(C)C1CCN(Cc2ccc(Nc3c(C(=O)C4CC4)cnc4ccc(-c5cc(Cl)c(O)c(Cl)c5)cc34)cc2)C1 (stereo not drawn) [Example 695, cyclopropyl(6-(3,5-dichloro-4-hydroxyphenyl)-4-(4-((3-(dimethylamino)pyrrolidin-1-yl)methyl)phenylamino)quinolin-3-yl)methanone hydrochloride] | 0.26 µM |  | 0.13 µM |  |  | 0.23 µM |  | 0.1 µM | IC50 (HT-1197 cells; Homo sapiens, HT1197, 72 h, HT1197 cells (negative control, no MELK expression)): 5.8 µM
CCC(=O)c1cnc2ccc(-c3cc(Cl)c(O)c(Cl)c3)cc2c1N[C@H]1CC[C@H](CN(C)C)CC1 [Example 716, 1-(6-(3,5-dichloro-4-hydroxyphenyl)-4-((trans-4-((dimethylamino)methyl)cyclohexyl)amino)quinolin-3-yl)propan-1-one dihydrochloride] |  |  |  |  |  | 0.14 µM |  |  | IC50 (HT-1197 cells; [6]): 0.82 µM; IC50 (T47D cells; 72 hours, dihydrochloride): 0.14 µM; IC50 (MELK; dihydrochloride): 0.0016 µM; IC50 (DU4475 cells [4]; dihydrochloride): 0.055 µM; IC50 (A549 cells; dihydrochloride): 0.12 µM
CC(=O)c1cnc2ccc(-c3cc(F)c(O)c(Cl)c3)cc2c1Nc1ccc(N2CCCC(N)C2)nc1 (stereo not drawn) [Example 733, 1-(4-(6-(3-aminopiperidin-1-yl)pyridin-3-ylamino)-6-(3-chloro-5-fluoro-4-hydroxyphenyl)quinolin-3-yl)ethanone] |  |  |  |  | 0.00099 µM | 0.0064 µM |  |  | IC50 (HT-1197 cells; HT1197 cells (negative control, no MELK expression)): 0.064 µM; IC50 (T47D cells; 72 hours): 0.0035 µM; IC50 (DU4475 cells [4]): 0.01 µM; IC50 (A549 cells): 0.0086 µM
CC(=O)c1cnc2ccc(-c3cc(Cl)c(O)c(Cl)c3)cc2c1N[C@H]1CC[C@H](CCN(C)C)CC1 [Example 740, 1-(6-(3,5-dichloro-4-hydroxyphenyl)-4-(trans-4-(2-(dimethylamino)ethyl)cyclohexylamino)quinolin-3-yl)ethanone hydrochloride] | 0.099 µM |  |  |  |  | 0.17 µM | 3.5 µM | 0.087 µM | 
CC(=O)c1cnc2ccc(-c3cc(F)c(O)c(Cl)c3)cc2c1N[C@H]1CC[C@H](CCN(C)C)CC1 [Example 742, 1-(6-(3-chloro-5-fluoro-4-hydroxyphenyl)-4-(1R,4R)-4-(2-(dimethylamino)ethyl)cyclohexylamino)quinolin-3-yl)ethanone dihydrochloride] |  |  |  |  |  | 0.094 µM |  |  | IC50 (HT-1197 cells; [6]): 1.7 µM; IC50 (T47D cells; 72 hours, dihydrochloride): 0.034 µM; IC50 (MELK; dihydrochloride): 0.0044 µM; IC50 (DU4475 cells [4]; dihydrochloride): 0.063 µM; IC50 (A549 cells; dihydrochloride): 0.078 µM
